Publication PMC12567244, “Innovative Amino-Functionalization of Pyrido[2,3-d]pyrimidine Scaffolds for Broad Therapeutic Applications Supported by Computational Analyses” (Pharmaceuticals, 2025)
≈ marks a conversion by molar mass, not a printed value. Where “and” joins values, the source holds several entries; their conditions need not be identical. Identical values can stand only once. Like-named read-outs stand apart in the source and are kept apart here.

Assays:
breast carcinoma (MCF-7) = assay: MTT cytotoxicity assay, MCF-7; settings: for SI MCF-7: IC50 WI-38 / IC50 MCF-7; for IC50: read-out: IC50 MCF-7, MTT, mean ± SD of three measurements
E.coli ATCC25915 = assay: Well diffusion inhibition zone, E. coli; settings: Escherichia coli, ATCC25915, read-out: Inhibition zone E.coli ATCC25915
liver carcinoma (HepG-2) = assay: MTT cytotoxicity assay, HepG-2; settings: for SI HepG-2: IC50 WI-38 / IC50 HepG-2; for IC50: read-out: IC50 HepG-2, MTT, mean ± SD of three measurements
[1] = tested on: cervical carcinoma (HeLa); assay: MTT cytotoxicity assay, HeLa; settings: for SI HeLa: IC50 WI-38 / IC50 HeLa; for IC50: read-out: IC50 HeLa, MTT, mean ± SD of three measurements
P. aeruginosa ATCC10145 [2] = assay: Well diffusion inhibition zone, P. aeruginosa; settings: Pseudomonas aeruginosa, ATCC10145, read-out: Inhibition zone P. aeruginosa ATCC10145
in vitro = settings: human, WI-38 normal lung fibroblast cells
HeLa, HepG-2, and MCF-7 = assay: MTT cytotoxicity, range over the cancer cell panel; settings: read-out: IC50 across HeLa, HepG-2 and MCF-7; range over all examined cancer cell lines
E. faecalis ATCC29212 [3] = assay: Well diffusion inhibition zone, E. faecalis; settings: Enterococcus faecalis, ATCC29212, read-out: Inhibition zone E. faecalis ATCC29212
P. aeruginosa ATCC10145 [4] = assay: MIC, two-fold serial dilution, P. aeruginosa; format: cell-based; settings: Pseudomonas aeruginosa
E. faecalis ATCC29212 [5] = assay: MIC, two-fold serial dilution, E. faecalis; format: cell-based, Enterococcus faecalis; settings: for MIC: Enterococcus faecalis, ATCC29212
S. aureus ATCC25923 = assay: MIC, two-fold serial dilution, S. aureus; format: cell-based, Staphylococcus aureus; settings: for MIC: Staphylococcus aureus, ATCC25923
EGFRT790M [6] = molecular target: T1, EGFRT790M (Homo sapiens, UniProt P00533, T790M)
E. coli ATCC25915 = assay: MIC, two-fold serial dilution, E. coli; format: cell-based; settings: Escherichia coli
MCF-7 cells [7] = assay: Annexin V-FITC/PI apoptosis analysis; format: cell-based, human; settings: MCF-7, 48 h
MCF-7 cells [8] = assay: Wound healing (scratch) assay; format: cell-based, human
EGFRT790M [9] = molecular target: T1, EGFRT790M; assay: biochemical
mutant EGFRL858R [10] = molecular target: T2, mutant EGFRL858R (Homo sapiens, UniProt P00533, L858R)
mutant EGFRL858R [11] = molecular target: T2, mutant EGFRL858R; assay: biochemical
MCF-7 cells [12] = assay: Cell cycle analysis by flow cytometry; format: cell-based, human; settings: MCF-7, 48 h incubation
EGFRWT = EGFRWT (Homo sapiens, UniProt P00533); assay: HTRF enzyme inhibitory assay, EGFR WT
EGFRWT, sequence (P00533 25-1210): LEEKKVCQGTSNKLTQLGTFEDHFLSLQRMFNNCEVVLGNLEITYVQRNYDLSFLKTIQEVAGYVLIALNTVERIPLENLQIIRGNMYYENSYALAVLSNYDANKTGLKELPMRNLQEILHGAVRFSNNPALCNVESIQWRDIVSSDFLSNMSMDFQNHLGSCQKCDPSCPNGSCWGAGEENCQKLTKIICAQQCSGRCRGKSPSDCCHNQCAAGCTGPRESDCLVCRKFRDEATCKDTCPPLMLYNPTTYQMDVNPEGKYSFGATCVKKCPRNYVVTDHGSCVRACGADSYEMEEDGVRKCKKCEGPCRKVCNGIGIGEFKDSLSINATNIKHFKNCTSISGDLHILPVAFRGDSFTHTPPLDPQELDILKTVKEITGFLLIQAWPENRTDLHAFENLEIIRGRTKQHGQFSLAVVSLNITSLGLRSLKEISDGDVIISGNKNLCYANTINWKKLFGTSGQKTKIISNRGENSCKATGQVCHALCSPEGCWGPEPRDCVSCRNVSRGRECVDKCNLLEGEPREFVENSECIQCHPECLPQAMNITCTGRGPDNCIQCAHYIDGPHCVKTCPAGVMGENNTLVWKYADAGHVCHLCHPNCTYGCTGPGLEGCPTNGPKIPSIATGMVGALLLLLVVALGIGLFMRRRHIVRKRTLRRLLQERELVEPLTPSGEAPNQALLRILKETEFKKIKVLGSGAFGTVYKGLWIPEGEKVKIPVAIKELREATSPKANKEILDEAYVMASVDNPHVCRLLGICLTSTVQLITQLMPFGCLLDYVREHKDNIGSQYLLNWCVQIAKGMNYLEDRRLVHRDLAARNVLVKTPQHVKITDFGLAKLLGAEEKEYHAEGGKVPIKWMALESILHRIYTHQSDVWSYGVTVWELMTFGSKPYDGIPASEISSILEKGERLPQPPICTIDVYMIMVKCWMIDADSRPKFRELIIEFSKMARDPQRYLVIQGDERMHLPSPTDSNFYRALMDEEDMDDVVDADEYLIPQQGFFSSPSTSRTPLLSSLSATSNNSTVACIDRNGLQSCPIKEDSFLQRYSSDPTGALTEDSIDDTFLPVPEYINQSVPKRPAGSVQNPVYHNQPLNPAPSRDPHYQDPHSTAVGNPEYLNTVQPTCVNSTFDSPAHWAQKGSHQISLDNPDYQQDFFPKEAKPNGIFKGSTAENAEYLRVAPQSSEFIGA

T2 sequence (P00533 25-1210 L858R): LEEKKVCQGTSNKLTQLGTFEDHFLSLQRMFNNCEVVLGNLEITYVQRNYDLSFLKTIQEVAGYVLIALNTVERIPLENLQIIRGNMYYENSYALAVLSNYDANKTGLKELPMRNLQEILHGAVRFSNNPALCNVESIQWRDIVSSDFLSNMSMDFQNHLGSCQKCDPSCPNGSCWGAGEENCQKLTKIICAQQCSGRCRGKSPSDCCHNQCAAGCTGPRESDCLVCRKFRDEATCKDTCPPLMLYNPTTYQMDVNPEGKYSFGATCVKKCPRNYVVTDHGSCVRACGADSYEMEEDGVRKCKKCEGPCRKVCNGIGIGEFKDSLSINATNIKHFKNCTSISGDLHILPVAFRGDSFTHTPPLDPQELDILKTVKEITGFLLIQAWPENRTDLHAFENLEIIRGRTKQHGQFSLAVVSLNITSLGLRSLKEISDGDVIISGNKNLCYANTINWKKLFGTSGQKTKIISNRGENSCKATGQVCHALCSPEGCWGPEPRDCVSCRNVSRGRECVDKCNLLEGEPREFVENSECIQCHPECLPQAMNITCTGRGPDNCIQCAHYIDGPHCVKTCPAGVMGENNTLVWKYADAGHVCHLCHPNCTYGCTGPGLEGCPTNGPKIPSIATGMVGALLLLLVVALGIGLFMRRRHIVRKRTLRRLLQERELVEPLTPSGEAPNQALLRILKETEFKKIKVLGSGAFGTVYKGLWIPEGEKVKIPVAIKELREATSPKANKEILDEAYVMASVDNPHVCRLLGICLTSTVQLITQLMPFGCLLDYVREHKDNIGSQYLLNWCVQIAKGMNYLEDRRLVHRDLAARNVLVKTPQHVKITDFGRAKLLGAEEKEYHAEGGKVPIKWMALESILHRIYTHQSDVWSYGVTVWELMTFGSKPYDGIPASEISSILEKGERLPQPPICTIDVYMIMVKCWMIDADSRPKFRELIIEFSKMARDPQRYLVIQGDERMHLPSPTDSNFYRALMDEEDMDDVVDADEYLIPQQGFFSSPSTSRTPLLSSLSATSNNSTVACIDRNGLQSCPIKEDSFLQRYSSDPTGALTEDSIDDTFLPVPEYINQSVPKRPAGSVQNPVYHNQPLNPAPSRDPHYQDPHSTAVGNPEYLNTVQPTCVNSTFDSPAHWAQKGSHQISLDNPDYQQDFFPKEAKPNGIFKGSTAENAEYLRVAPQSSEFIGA
T1 sequence (P00533 25-1210 T790M): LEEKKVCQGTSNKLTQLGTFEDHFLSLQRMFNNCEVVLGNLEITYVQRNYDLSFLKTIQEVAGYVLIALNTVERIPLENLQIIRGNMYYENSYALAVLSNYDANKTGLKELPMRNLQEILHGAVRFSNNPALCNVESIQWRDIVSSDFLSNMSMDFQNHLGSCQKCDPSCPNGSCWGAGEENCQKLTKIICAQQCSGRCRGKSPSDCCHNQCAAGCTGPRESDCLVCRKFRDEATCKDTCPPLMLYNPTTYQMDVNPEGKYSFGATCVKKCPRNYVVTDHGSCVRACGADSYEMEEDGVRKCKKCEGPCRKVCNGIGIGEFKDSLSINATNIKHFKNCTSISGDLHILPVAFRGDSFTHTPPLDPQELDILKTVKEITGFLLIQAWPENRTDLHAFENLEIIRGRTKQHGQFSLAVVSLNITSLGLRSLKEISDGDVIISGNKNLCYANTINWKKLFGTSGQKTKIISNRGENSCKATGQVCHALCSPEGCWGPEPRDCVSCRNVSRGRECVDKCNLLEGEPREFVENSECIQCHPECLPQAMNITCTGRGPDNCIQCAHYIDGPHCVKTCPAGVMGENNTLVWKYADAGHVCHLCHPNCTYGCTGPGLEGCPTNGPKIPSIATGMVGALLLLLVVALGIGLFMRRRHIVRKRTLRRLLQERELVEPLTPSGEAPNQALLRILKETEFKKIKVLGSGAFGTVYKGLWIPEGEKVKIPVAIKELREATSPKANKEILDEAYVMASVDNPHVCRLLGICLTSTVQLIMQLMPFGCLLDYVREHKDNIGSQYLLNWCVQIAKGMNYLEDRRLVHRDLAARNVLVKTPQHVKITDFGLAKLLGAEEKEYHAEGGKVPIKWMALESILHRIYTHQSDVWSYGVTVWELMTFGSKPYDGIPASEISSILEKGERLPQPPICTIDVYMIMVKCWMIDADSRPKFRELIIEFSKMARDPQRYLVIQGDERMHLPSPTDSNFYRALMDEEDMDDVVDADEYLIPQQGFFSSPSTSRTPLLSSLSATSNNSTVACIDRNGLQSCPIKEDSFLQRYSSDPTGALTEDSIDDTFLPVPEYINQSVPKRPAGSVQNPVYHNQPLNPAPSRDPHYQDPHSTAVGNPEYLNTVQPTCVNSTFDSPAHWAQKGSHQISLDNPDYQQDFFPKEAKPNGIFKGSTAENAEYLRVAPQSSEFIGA

SMILES: Cn1c(=O)c2c(-c3ccc(Cl)cc3)c(-c3nnc4sc(S)nn34)c(N)nc2n(C)c1=O [Compound 15, 7-Amino-5-(4-chlorophenyl)-6-(6-mercapto-[1,2,4]triazolo[3,4-b][1,3,4]thiadiazol-3-yl)-1,3-dimethylpyrido[2,3-d]pyrimidine-2,4(1H,3H)-dione]
- SI MCF-7 (breast carcinoma (MCF-7)): 0.86
- IC50 (breast carcinoma (MCF-7)): 47.5 ± 2.8 µM
- zone of inhibition at 100 µg/mL (E.coli ATCC25915): 7.5 ± 0.15 mm
- SI HepG-2 (liver carcinoma (HepG-2)): 0.79
- IC50 (liver carcinoma (HepG-2)): 51.8 ± 2.9 µM
- SI HeLa [1]: 1.03
- IC50 [1]: 39.8 ± 2.4 µM
- zone of inhibition at 100 µg/mL (P. aeruginosa ATCC10145 [2]): 10.3 mm
- IC50 at 48 h (in vitro): 41.2 ± 2.5 µM
- IC50 (HeLa, HepG-2, and MCF-7): 40 to 52 µM

SMILES: Cn1c(=O)c2c(-c3ccc(Cl)cc3)c(C3=NN=C4N=CN=C(N)C43)c(N)nc2n(C)c1=O (stereo not shown) [Compound 12, 7-Amino-6-(4-amino-3aH-pyrazolo [3,4-d]pyrimidin-3-yl)-5-(4-chlorophenyl)-1,3-dimethylpyrido[2,3-d]pyrimidine-2,4(1H,3H)-dione]
- zone of inhibition at 100 µg/mL (E. faecalis ATCC29212 [3]): 2 ± 0.05 mm
- MIC (P. aeruginosa ATCC10145 [4]): 50 µg/mL (≈ 111 µM)
- SI MCF-7 (breast carcinoma (MCF-7)): 0.31
- IC50 (breast carcinoma (MCF-7)): 58.8 ± 3.3 µM
- zone of inhibition at 100 µg/mL (E.coli ATCC25915): 10.4 ± 0.08 mm
- MIC (E. faecalis ATCC29212 [5]): 100 µg/mL (≈ 222 µM)
- SI HepG-2 (liver carcinoma (HepG-2)): 0.33
- IC50 (liver carcinoma (HepG-2)): 54.3 ± 3.2 µM
- SI HeLa [1]: 0.41
- IC50 [1]: 44.2 ± 2.6 µM
- zone of inhibition at 100 µg/mL (P. aeruginosa ATCC10145 [2]): 10.5 mm
- MIC S. aureus ATCC25923 (S. aureus ATCC25923): >100 µg/mL
- MIC (S. aureus ATCC25923): > 100 µg/mL
- %inh EGFR_T790M (EGFRT790M [6]; conc 0.01): 6.2%
- %inh EGFR_T790M (EGFRT790M [6]; conc 0.1): 29.8%
- %inh EGFR_T790M (EGFRT790M [6]; conc 1): 52.9%
- %inh EGFR_T790M (EGFRT790M [6]; conc 10): 75.1%
- %inh EGFR_T790M (EGFRT790M [6]; conc 100): 93.5%
- IC50 at 48 h (in vitro): 18.2 ± 1.4 µM
- MIC (E. coli ATCC25915): 50 µg/mL (≈ 111 µM)

SMILES: CCOC(=O)c1c(N)nc2c(c1-c1ccc(Cl)cc1)c(=O)n(C)c(=O)n2C [Compound 1, Ethyl 7-amino-5-(4-chlorophenyl)-1,3-dimethyl-2,4-dioxo-1,2,3,4-tetrahydropyrido[2,3-d]pyrimidine-6-carboxylate]
- Apoptosis Early (MCF-7 cells [7]): 5.86%
- Apoptosis Late (MCF-7 cells [7]): 16.62%
- Apoptosis Total (MCF-7 cells [7]): 26.37%
- Necrosis (MCF-7 cells [7]): 3.89%
- zone of inhibition at 100 µg/mL (E. faecalis ATCC29212 [3]): 2 ± 0.05 mm
- MIC (P. aeruginosa ATCC10145 [4]): 50 µg/mL (≈ 129 µM)
- SI MCF-7 (breast carcinoma (MCF-7)): 20.51
- IC50 (breast carcinoma (MCF-7)): 3.98 ± 0.2 µM
- zone of inhibition at 100 µg/mL (E.coli ATCC25915): 9.5 ± 0.12 mm
- MIC (E. faecalis ATCC29212 [5]): 100 µg/mL (≈ 257 µM)
- SI HepG-2 (liver carcinoma (HepG-2)): 13.83
- IC50 (liver carcinoma (HepG-2)): 5.9 ± 0.3 µM
- SI HeLa [1]: 12.98
- IC50 [1]: 6.29 ± 0.5 µM
- Length of migration (MCF-7 cells [8]; MCF-7, 72 h): 0.31–0.32 mm
- Migrated cells area (MCF-7 cells [8]; MCF-7, 72 h): 0.564 mm^2
- Length of migration (MCF-7 cells [8]; MCF-7, 72 h, listed as U1): 0.31 mm
- % Closure (wound closure) (MCF-7 cells [8]; MCF-7, after 72 h): 69.63% and 69.63 ± 2.57%
- IC50 (EGFRT790M [9]): 0.174 ± 0.006 µM
- zone of inhibition at 100 µg/mL (P. aeruginosa ATCC10145 [2]): 10.5 ± 0.05 mm
- %inh EGFR_L858R (mutant EGFRL858R [10]; conc 0.01): 9.88%
- %inh EGFR_L858R (mutant EGFRL858R [10]; conc 0.1): 23.7%
- %inh EGFR_L858R (mutant EGFRL858R [10]; conc 1): 40%
- %inh EGFR_L858R (mutant EGFRL858R [10]; conc 10): 75.6%
- %inh EGFR_L858R (mutant EGFRL858R [10]; conc 100): 93.7%
- Fold-Change L858R/WT (mutant EGFRL858R [10]; potency relative to wild-type EGFR): 12 × and 12.44×
- MIC (S. aureus ATCC25923): 100 µg/mL (≈ 257 µM)
- %inh EGFR_T790M (EGFRT790M [6]; conc 0.01): 22.1%
- %inh EGFR_T790M (EGFRT790M [6]; conc 0.1): 51.1%
- %inh EGFR_T790M (EGFRT790M [6]; conc 1): 66.5%
- %inh EGFR_T790M (EGFRT790M [6]; conc 10): 82.2%
- %inh EGFR_T790M (EGFRT790M [6]; conc 100): 96.1%
- IC50 at 48 h (in vitro): 81.7 ± 4.1 µM
- IC50 (HeLa, HepG-2, and MCF-7): 3.98 to 6.29 µM
- MIC (E. coli ATCC25915): 50 µg/mL (≈ 129 µM)
- IC50 (mutant EGFRL858R [11]): 1.16 ± 0.036 µM
- %G0-G1 (MCF-7 cells [12]): 74.86%
- %G2/M (MCF-7 cells [12]): 1.75%
- %S (MCF-7 cells [12]): 22.79%
- IC50 (EGFRWT): 0.093 ± 0.003 µM
- %inh EGFR WT (EGFRWT; conc 0.01): 29.6%
- %inh EGFR WT (EGFRWT; conc 0.1): 51%
- %inh EGFR WT (EGFRWT; conc 1): 74.5%
- %inh EGFR WT (EGFRWT; conc 10): 85.3%
- %inh EGFR WT (EGFRWT; conc 100): 96.1%

SMILES: Cn1c(=O)c2c(-c3ccc(Cl)cc3)c(-c3nn(CCC#N)c(=S)o3)c(N)nc2n(C)c1=O [Compound 9, 3-{5-[7-Amino-5-(4-chlorophenyl)-1,3-dimethyl-2,4-dioxo-1,2,3,4-tetrahydropyrido [2,3-d]pyrimidin-6-yl]-2-thioxo-1,3,4-oxadiazol-3(2H)-yl}propanenitrile]
- IC50 (breast carcinoma (MCF-7)): 67.8 ± 3.6 µM
- IC50 (liver carcinoma (HepG-2)): 88.6 ± 4.4 µM
- IC50 [1]: 62.7 ± 3.5 µM
- zone of inhibition at 100 µg/mL (P. aeruginosa ATCC10145 [2]): 7.6 mm
- IC50 at 48 h (in vitro): > 100 µM
- IC50 (HeLa, HepG-2, and MCF-7): > 50 µM and 62 to 88 µM

SMILES: Cc1cc(C)n(-c2c[nH]nc2NC(=O)c2c(N)nc3c(c2-c2ccc(Cl)cc2)c(=O)n(C)c(=O)n3C)n1 [Compound 13, 7-Amino-5-(4-chlorophenyl)-N-(3,5-dimethyl-1′H-[1,4′-bipyrazol]-3′-yl)-1,3-dimethyl-2,4-dioxo-1,2,3,4-tetrahydropyrido[2,3-d]pyrimidine-6-carboxamide]
- MIC (P. aeruginosa ATCC10145 [4]): 100 µg/mL (≈ 192 µM)
- SI MCF-7 (breast carcinoma (MCF-7)): 0.29
- IC50 (breast carcinoma (MCF-7)): 36.1 ± 2.2 µM
- zone of inhibition at 100 µg/mL (E.coli ATCC25915): 14.5 ± 0.15 mm
- MIC E. faecalis ATCC29212 (E. faecalis ATCC29212 [5]): >100 µg/mL
- MIC (E. faecalis ATCC29212 [5]): > 100 µg/mL
- SI HepG-2 (liver carcinoma (HepG-2)): 0.32
- IC50 (liver carcinoma (HepG-2)): 32.6 ± 2.1 µM
- SI HeLa [1]: 0.37
- IC50 [1]: 28.7 ± 1.9 µM
- zone of inhibition at 100 µg/mL (P. aeruginosa ATCC10145 [2]): 16.8 mm
- MIC S. aureus ATCC25923 (S. aureus ATCC25923): >100 µg/mL
- MIC (S. aureus ATCC25923): > 100 µg/mL
- IC50 at 48 h (in vitro): 10.7 ± 0.8 µM
- IC50 (HeLa, HepG-2, and MCF-7): 28 to 36 µM
- MIC (E. coli ATCC25915): 50 µg/mL (≈ 96.2 µM)
